Experimental data reported in PubChem BioAssay AID1918939 (Molecular Pharmacology Branch, DTP, NCI, 2023).
pIC50: −log10 of the molar value. Values joined by “and” are separate entries in the source; they are usually repeats but may differ in a detail not shown here. Identical values can stand only once.

Tested on: 653999-131-R-J2-PDC complex spheroid viability
Experiment: Anticancer human tumor 653999-131-R-J2-PDC patient-derived lung adenocarcinoma cell line growth inhibition
Details: for viability, T/C: stronger effect = lower value
In short: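 Complex spheroids of tumor cells with HUVEC and human MSCs, exposed to iadademstat combined with other agents. Each agent tested in half-log steps from near clinical Cmax (else 10 microM top), DMSO ≤0.25%.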

[1] = curve of first compound, second compound 0.1 µM
[2] = curve of first compound, second compound 0.316 µM
[3] = curve of first compound, second compound 1 µM
[4] = curve of first compound, second compound 3.16 µM
[5] = curve of first compound, second compound 10 µM
[6] = second compound 0.1 µM, first compound 0.000316 µM
[7] = second compound 0.1 µM, first compound 0.001 µM
[8] = second compound 0.1 µM, first compound 0.00316 µM
[9] = second compound 0.1 µM, first compound 0.01 µM
[10] = second compound 0.1 µM, first compound 0.0316 µM
[11] = second compound 0.1 µM, first compound 0.1 µM
[12] = second compound 0.316 µM, first compound 0.000316 µM
[13] = second compound 0.316 µM, first compound 0.001 µM
[14] = second compound 0.316 µM, first compound 0.00316 µM
[15] = second compound 0.316 µM, first compound 0.01 µM
[16] = second compound 0.316 µM, first compound 0.0316 µM
[17] = second compound 0.316 µM, first compound 0.1 µM
[18] = second compound 1 µM, first compound 0.000316 µM
[19] = second compound 1 µM, first compound 0.001 µM
[20] = second compound 1 µM, first compound 0.00316 µM
[21] = second compound 1 µM, first compound 0.01 µM
[22] = second compound 1 µM, first compound 0.0316 µM
[23] = second compound 1 µM, first compound 0.1 µM
[24] = second compound 3.16 µM, first compound 0.000316 µM
[25] = second compound 3.16 µM, first compound 0.001 µM
[26] = second compound 3.16 µM, first compound 0.00316 µM
[27] = second compound 3.16 µM, first compound 0.01 µM
[28] = second compound 3.16 µM, first compound 0.0316 µM
[29] = second compound 3.16 µM, first compound 0.1 µM
[30] = second compound 10 µM, first compound 0.000316 µM
[31] = second compound 10 µM, first compound 0.001 µM
[32] = second compound 10 µM, first compound 0.00316 µM
[33] = second compound 10 µM, first compound 0.01 µM
[34] = second compound 10 µM, first compound 0.0316 µM
[35] = second compound 10 µM, first compound 0.1 µM
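Also: spheroids exposed to agents for seven days before readout.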

CC(C)CC(NC(=O)C(Cc1ccccc1)NC(=O)c1cnccn1)B(O)O (centres undefined) + NC1CCC(NC2CC2c2ccccc2)CC1
pIC50 [1]: 8.64
pIC50 [2]: 8.61
pIC50 [3]: 8.53
pIC50 [4]: 8.64
pIC50 [5]: 8.66
viability, T/C [6]: 108%
viability, T/C [7]: 107%
viability, T/C [8]: 27.5%
viability, T/C [9]: 3.82%
viability, T/C [10]: 2.01%
viability, T/C [11]: 1.51%
viability, T/C [12]: 123%
viability, T/C [13]: 124%
viability, T/C [14]: 30.1%
viability, T/C [15]: 5.95%
viability, T/C [16]: 0.76%
viability, T/C [17]: 1.38%
viability, T/C [18]: 115%
viability, T/C [19]: 115%
viability, T/C [20]: 46.1%
viability, T/C [21]: 4.39%
viability, T/C [22]: 1.9%
viability, T/C [23]: 1.12%
viability, T/C [24]: 97.6%
viability, T/C [25]: 123%
viability, T/C [26]: 27.4%
viability, T/C [27]: 3.37%
viability, T/C [28]: 1.02%
viability, T/C [29]: 2.22%
viability, T/C [30]: 117%
viability, T/C [31]: 119%
viability, T/C [32]: 18.5%
viability, T/C [33]: 2.92%
viability, T/C [34]: 1.36%
viability, T/C [35]: 0.56%

O=C(c1cc(Cc2n[nH]c(=O)c3ccccc23)ccc1F)N1CCN(C(=O)C2CC2)CC1
viability, T/C (compound 0.0316 µM): 105% and 108%
viability, T/C (compound 0.1 µM): 103% and 108%
viability, T/C (compound 0.316 µM): 94.7% and 105%
viability, T/C (compound 1 µM): 92.7% and 102%
viability, T/C (compound 3.16 µM): 79% and 91.8%
viability, T/C (compound 10 µM): 68.4% and 69.3%
pIC50 (curve of compound): < 5.00

O=C(C=Cn1cnc(-c2cc(C(F)(F)F)cc(C(F)(F)F)c2)n1)NNc1cnccn1
viability, T/C (compound 0.00316 µM): 63.9% and 63.1%
viability, T/C (compound 0.01 µM): 51.8% and 58%
viability, T/C (compound 0.0316 µM): 43.4% and 58.5%
viability, T/C (compound 0.1 µM): 40.6% and 47.5%
viability, T/C (compound 0.316 µM): 31.4% and 38.6%
viability, T/C (compound 1 µM): 21.8% and 36.8%
pIC50 (curve of compound): 7.77 and 7.12

CCN(c1cc(-c2ccc(CN3CCOCC3)cc2)cc(C(=O)NCc2c(C)cc(C)[nH]c2=O)c1C)C1CCOCC1 + NC1CC1c1ccc(-c2cccc(O)c2)cc1
pIC50 [1]: < 5.52
pIC50 [2]: < 5.52
pIC50 [3]: < 5.52
pIC50 [4]: < 5.52
pIC50 [5]: < 5.52
viability, T/C (second compound 0.1 µM, first compound 0.00949 µM): 92.9%
viability, T/C (second compound 0.1 µM, first compound 0.03 µM): 104%
viability, T/C (second compound 0.1 µM, first compound 0.0949 µM): 97.8%
viability, T/C (second compound 0.1 µM, first compound 0.3 µM): 87.4%
viability, T/C (second compound 0.1 µM, first compound 0.949 µM): 94.1%
viability, T/C (second compound 0.1 µM, first compound 3 µM): 69.5%
viability, T/C (second compound 0.316 µM, first compound 0.00949 µM): 102%
viability, T/C (second compound 0.316 µM, first compound 0.03 µM): 107%
viability, T/C (second compound 0.316 µM, first compound 0.0949 µM): 97.8%
viability, T/C (second compound 0.316 µM, first compound 0.3 µM): 80.1%
viability, T/C (second compound 0.316 µM, first compound 0.949 µM): 79.3%
viability, T/C (second compound 0.316 µM, first compound 3 µM): 69.7%
viability, T/C (second compound 1 µM, first compound 0.00949 µM): 96.1%
viability, T/C (second compound 1 µM, first compound 0.03 µM): 97.5%
viability, T/C (second compound 1 µM, first compound 0.0949 µM): 89.4%
viability, T/C (second compound 1 µM, first compound 0.3 µM): 95.4%
viability, T/C (second compound 1 µM, first compound 0.949 µM): 93.6%
viability, T/C (second compound 1 µM, first compound 3 µM): 71.8%
viability, T/C (second compound 3.16 µM, first compound 0.00949 µM): 108%
viability, T/C (second compound 3.16 µM, first compound 0.03 µM): 108%
viability, T/C (second compound 3.16 µM, first compound 0.0949 µM): 109%
viability, T/C (second compound 3.16 µM, first compound 0.3 µM): 93.8%
viability, T/C (second compound 3.16 µM, first compound 0.949 µM): 89.3%
viability, T/C (second compound 3.16 µM, first compound 3 µM): 76.2%
viability, T/C (second compound 10 µM, first compound 0.00949 µM): 101%
viability, T/C (second compound 10 µM, first compound 0.03 µM): 113%
viability, T/C (second compound 10 µM, first compound 0.0949 µM): 97%
viability, T/C (second compound 10 µM, first compound 0.3 µM): 93%
viability, T/C (second compound 10 µM, first compound 0.949 µM): 90.4%
viability, T/C (second compound 10 µM, first compound 3 µM): 86.7%

Cn1ncnc1C1c2n[nH]c(=O)c3cc(F)cc(c23)NC1c1ccc(F)cc1 (centres undefined) + NC1CCC(NC2CC2c2ccccc2)CC1
pIC50 [1]: < 7.00
pIC50 [2]: < 7.00
pIC50 [3]: < 7.00
pIC50 [4]: < 7.00
pIC50 [5]: < 7.00
viability, T/C [6]: 86.9%
viability, T/C [7]: 86.9%
viability, T/C [8]: 85.6%
viability, T/C [9]: 73%
viability, T/C [10]: 80.9%
viability, T/C [11]: 71.4%
viability, T/C [12]: 85.4%
viability, T/C [13]: 82.5%
viability, T/C [14]: 82.1%
viability, T/C [15]: 87.2%
viability, T/C [16]: 73.9%
viability, T/C [17]: 86%
viability, T/C [18]: 95.6%
viability, T/C [19]: 81.3%
viability, T/C [20]: 82.9%
viability, T/C [21]: 74.9%
viability, T/C [22]: 75.9%
viability, T/C [23]: 78.1%
viability, T/C [24]: 94.6%
viability, T/C [25]: 91.8%
viability, T/C [26]: 91.1%
viability, T/C [27]: 87.3%
viability, T/C [28]: 76.7%
viability, T/C [29]: 72.1%
viability, T/C [30]: 96.9%
viability, T/C [31]: 99.4%
viability, T/C [32]: 97.6%
viability, T/C [33]: 84.5%
viability, T/C [34]: 72%
viability, T/C [35]: 78.2%
